Results from patent US20090192167A1 (priority 2005, published 2009).
Read-outs that look alike come from different tables or passages of the source.

Key:
Pyricularia oryzae [1] = format: in vivo; conditions: granule, nursery box, inoculated 30 days after treatment, lesions examined after 7 days
Pyricularia oryzae [2] = format: in vivo; conditions: granule, submerged application, inoculated 14 days after treatment, lesions examined after 7 days
Chilo suppressalis [3] = conditions: in vivo
Chilo suppressalis [4] = conditions: in vivo; remark: listed apart in the source
Chilo suppressalis [5] = conditions: in vivo; remark: listed apart in the source
Pyricularia oryzae [6] = format: in vivo; conditions: inoculated 1 day after spraying, lesions counted after 7 days
[7] = amount of treated chemical 150 gai/box
[8] = amount of treated chemical 60 gai/box
[9] = amount of treated chemical 100 gai/box

Row | Compound | Mortality (%) (Chilo suppressalis [3]) | Mortality (%) (Chilo suppressalis [4]) | Mortality (%) (Chilo suppressalis [5]) | Pyricularia oryzae Control value (Pyricularia oryzae [6]; [9]) | also measured
1 | Cc1cc(C(F)(C(F)(F)F)C(F)(F)F)cc(C)c1NC(=O)c1cccc(N(C)C(=O)c2ccc(C#N)cc2)c1F [Compound 1217] | 95 | 95 | – | – | Pyricularia oryzae Control value (Pyricularia oryzae [1]; 5 gai/box): 0; Pyricularia oryzae Control value (Pyricularia oryzae [2]; 300 (gai/box)): 5
2 | Cc1cc(C(F)(C(F)(F)F)C(F)(F)F)cc(C)c1NC(=O)c1cccc(N(C)C(=O)c2cccnc2Cl)c1F [Compound 1245] | – | – | – | – | Pyricularia oryzae Control value (Pyricularia oryzae [1]; 5 gai/box): 5; Pyricularia oryzae Control value (Pyricularia oryzae [2]; 300 (gai/box)): 0
3 | CC(C)OC(=O)NC(CNC(=O)c1cc2ccccc2o1)C(C)C (stereo not shown) [Compound 3005] | 0 | 0 | 0 | – | Pyricularia oryzae Control value (Pyricularia oryzae [1]; 15 gai/box): 100; Pyricularia oryzae Control value (Pyricularia oryzae [2]; 450 (gai/box)): 100; Pyricularia oryzae Control value (Pyricularia oryzae [6]; [7]): 100
4 | Cc1ccc(C(=O)NCC(NC(=O)OCC(F)(F)F)C(C)(C)C)cc1 (stereo not shown) [Compound 3007] | – | – | 5 | – | Pyricularia oryzae Control value (Pyricularia oryzae [1]; 7.5 gai/box): 100; Pyricularia oryzae Control value (Pyricularia oryzae [2]; 225 (gai/box)): 100; Pyricularia oryzae Control value (Pyricularia oryzae [6]; [8]): 100
5 | O=C(Nc1cccc(C(=O)Nc2c(Br)cc(C(F)(C(F)(F)F)C(F)(F)F)cc2SC(F)(F)F)c1)c1ccccc1 [Compound 210] | – | – | 95 | 0 | –
6 | Cc1cc(C(F)(C(F)(F)F)C(F)(F)F)cc(C)c1NC(=O)c1cccc(NC(=O)c2cccnc2Cl)c1F [Compound 639] | – | – | – | – | Pyricularia oryzae Control value (Pyricularia oryzae [1]; 5 gai/box): 5; Pyricularia oryzae Control value (Pyricularia oryzae [2]; 300 (gai/box)): 0
7 | Cc1cc(C(F)(C(F)(F)F)C(F)(F)F)cc(C)c1NC(=O)c1cccc(NC(=O)OCCCl)c1F [Compound 3002] | – | – | 90 | 3 | –
8 | Cc1ccc(C(=O)NCC(NC(=O)OCC(F)(F)F)C(C)C)cc1 (stereo not shown) [Compound 3006] | 0 | 0 | 0 | – | Pyricularia oryzae Control value (Pyricularia oryzae [1]; 7.5 gai/box): 100; Pyricularia oryzae Control value (Pyricularia oryzae [2]; 225 (gai/box)): 100; Pyricularia oryzae Control value (Pyricularia oryzae [6]; [8]): 100
9 | Cc1ccc(C(=O)NCC(NC(=O)OC(C)C)C(C)C)cc1 (stereo not shown) [Compound 3003] | 0 | 0 | 0 | – | Pyricularia oryzae Control value (Pyricularia oryzae [1]; 15 gai/box): 100; Pyricularia oryzae Control value (Pyricularia oryzae [2]; 450 (gai/box)): 100; Pyricularia oryzae Control value (Pyricularia oryzae [6]; [7]): 100
10 | Cc1cc(C(F)(C(F)(F)F)C(F)(F)F)cc(C)c1NC(=O)c1cccc(NC(=O)c2cccnc2Cl)c1 [Compound 106, N-(2,6-dimethyl-4-heptafluoroisopropyl)phenyl 3-[(2-chloropyridine-3-yl)carbonylamino]benzamide] | – | – | – | – | Pyricularia oryzae Control value (Pyricularia oryzae [1]; 5 gai/box): 4; Pyricularia oryzae Control value (Pyricularia oryzae [2]; 300 (gai/box)): 3
11 | Cc1cc(C(F)(C(F)(F)F)C(F)(F)F)cc(C)c1NC(=O)c1cccc(N(C)C(=O)c2cccnc2F)c1F [Compound 1246] | – | – | – | – | Pyricularia oryzae Control value (Pyricularia oryzae [1]; 5 gai/box): 0; Pyricularia oryzae Control value (Pyricularia oryzae [2]; 300 (gai/box)): 4
12 | Cc1cc(C(F)(C(F)(F)F)C(F)(F)F)cc(C)c1NC(=O)c1cccc(NC(=O)OC(CF)CF)c1 [Compound 3001] | – | – | 95 | 0 | –
13 | Cc1cc(C(F)(C(F)(F)F)C(F)(F)F)cc(C)c1NC(=O)c1cccc(N(C)C(=O)c2ccccc2)c1F [Compound 1208] | – | – | 95 | 5 | –
14 | Cc1ccc(C(=O)NCC(NC(=O)OC(C)C)C(C)(C)C)cc1 (stereo not shown) [Compound 3004] | 0 | 0 | 0 | – | Pyricularia oryzae Control value (Pyricularia oryzae [1]; 15 gai/box): 100; Pyricularia oryzae Control value (Pyricularia oryzae [2]; 450 (gai/box)): 100; Pyricularia oryzae Control value (Pyricularia oryzae [6]; [7]): 100
15 | Cc1cc(C(F)(C(F)(F)F)C(F)(F)F)cc(C)c1NC(=O)c1cccc(NC(=O)OCC(F)(F)F)c1F [Compound 3000] | – | – | 90 | 3 | –
16 | Cc1cc(C(F)(C(F)(F)F)C(F)(F)F)cc(C)c1NC(=O)c1cccc(NC(=O)c2ccccc2)c1F [Compound 601, N-(2,6-dimethyl-4-heptafluoroisopropyl)phenyl 3-(benzoylamino)-2-fluorobenzamide] | – | – | 95 | 2 | –
17 | CC(C)C(CNC(=O)c1cc2ccccc2o1)NC(=O)OCC(F)(F)F (stereo not shown) [Compound 3008] | 0 | 0 | 0 | – | Pyricularia oryzae Control value (Pyricularia oryzae [1]; 7.5 gai/box): 100; Pyricularia oryzae Control value (Pyricularia oryzae [2]; 225 (gai/box)): 100; Pyricularia oryzae Control value (Pyricularia oryzae [6]; [8]): 100
